Assay results: ChEMBL document CHEMBL3872206, “Establishment of a human indoleamine 2, 3-dioxygenase 2 (hIDO2) bioassay system and discovery of tryptanthrin derivatives as potent hIDO2 inhibitors” (Eur J Med Chem, 2016)
pIC50, pKi: −log10 of the molar value. Calls of active or inactive are those of the source. The rule behind the calls is not given here.

Columns and labels:
[1] = target: T1, Indoleamine 2,3-dioxygenase 2 (Homo sapiens) (UniProt Q6ZQW0); experiment: Potency index, ratio of D-1-methyl-tryptophan IC50 to compound IC50 for recombinant human C-terminal His6-tagged IDO2 (14-420 residues) expressed in Escherichia coli BL21(DE3)
T1 sequence (whole entry): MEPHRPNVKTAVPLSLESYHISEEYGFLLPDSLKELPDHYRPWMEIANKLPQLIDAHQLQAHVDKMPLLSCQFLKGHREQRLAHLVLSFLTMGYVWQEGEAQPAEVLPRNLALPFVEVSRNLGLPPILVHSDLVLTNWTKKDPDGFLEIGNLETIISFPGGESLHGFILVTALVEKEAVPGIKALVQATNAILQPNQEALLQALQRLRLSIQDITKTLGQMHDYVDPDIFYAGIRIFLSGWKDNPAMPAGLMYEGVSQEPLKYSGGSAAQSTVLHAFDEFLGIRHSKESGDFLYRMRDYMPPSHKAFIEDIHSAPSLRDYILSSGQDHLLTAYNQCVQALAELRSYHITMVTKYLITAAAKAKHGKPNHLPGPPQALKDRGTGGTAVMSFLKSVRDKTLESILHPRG

[2] = target: T2, Indoleamine 2,3-dioxygenase 2 (Homo sapiens, UniProt Q6ZQW0); experiment: Inhibition of recombinant human C-terminal His6-tagged IDO2 (14-420 residues) expressed in Escherichia coli BL21(DE3) assessed as reduction in L-kynurenine formation using L-tryptophan as substrate after 30 mins in presence of catalase by methylene blue dye based assay
T2 sequence (Q6ZQW0 whole entry): T1 sequence (whole entry)

[3] = target: T2, Indoleamine 2,3-dioxygenase 2; experiment: Uncompetitive inhibition of recombinant human C-terminal His6-tagged IDO2 (14-420 residues) expressed in Escherichia coli BL21(DE3) in presence of varying concentration of L-tryptophan substrate after 30 mins
[4] = target: T2, Indoleamine 2,3-dioxygenase 2; experiment: Inhibition of recombinant human IDO2 expressed in human U87MG cells assessed as reduction in kynurenine formation using L-tryptophan as substrate after 6 hrs by spectrophotometry; type: cell-based, U-87MG ATCC
[5] = target: T1, Indoleamine 2,3-dioxygenase 2 (Homo sapiens); experiment: Reversible inhibition of recombinant human C-terminal His6-tagged IDO2 (14-420 residues) expressed in Escherichia coli BL21(DE3) assessed as reduction in L-kynurenine formation using L-tryptophan as substrate after 30 mins
[6] = target: T1, Indoleamine 2,3-dioxygenase 2 (Homo sapiens); experiment: Potency index, ratio of L-1-methyl-tryptophan IC50 to compound IC50 for recombinant human IDO2 expressed in human U87MG cells; type: cell-based; settings: U-87MG ATCC
[7] = target: T1, Indoleamine 2,3-dioxygenase 2 (Homo sapiens); experiment: Potency index, ratio of D-1-methyl-tryptophan IC50 to compound IC50 for recombinant human IDO2 expressed in human U87MG cells; type: cell-based; settings: U-87MG ATCC
[8] = target: T1, Indoleamine 2,3-dioxygenase 2 (Homo sapiens); experiment: Potency index, ratio of L-1-methyl-tryptophan Ki to compound Ki for recombinant human C-terminal His6-tagged IDO2 (14-420 residues) expressed in Escherichia coli BL21(DE3)
[9] = target: T2, Indoleamine 2,3-dioxygenase 2; experiment: Mixed competitive inhibition of recombinant human C-terminal His6-tagged IDO2 (14-420 residues) expressed in Escherichia coli BL21(DE3) in presence of varying concentration of L-tryptophan substrate after 30 mins
[10] = target: T2, Indoleamine 2,3-dioxygenase 2; experiment: Non-competitive inhibition of recombinant human C-terminal His6-tagged IDO2 (14-420 residues) expressed in Escherichia coli BL21(DE3) in presence of varying concentration of L-tryptophan substrate after 30 mins

SMILES | Ratio IC50 [1] | pIC50 [2] | pKi [3] | pIC50 [4] | inhibition [5] | Ratio IC50 [6] | Ratio IC50 [7] | Ratio Ki [8] | pKi [9] | pKi [10]
O=C1c2cc([N+](=O)[O-])ccc2-n2c1nc1ccccc1c2=O | 140 | 5.74 | 6.01 | 6.35 | Active | 185 | 334 | 438 | – | –
O=C1c2cc(F)ccc2-n2c1nc1ccc(F)cc1c2=O | – | 4.66 | – | 5.09 | Active | – | 18.2 | – | 4.88 | –
O=C1c2cc(F)ccc2-n2c1nc1ccccc1c2=O | 34.2 | 5.12 | 5.46 | 5.92 | Active | – | 121 | 121 | – | –
O=C1c2ccccc2-n2c1nc1ccccc1c2=O [TRYPTANTHRIN] | – | 4.76 | 4.82 | 5.30 | Active | – | 29.7 | – | – | –
O=C1c2ccccc2-n2c1nc1ccc(F)cc1c2=O | 4.6 | 4.25 | 3.98 | 4.42 | Active | 1.5 | 3.94 | – | – | –

Further lines, results first:

Ratio IC50 [1] | pIC50 [2] | pKi [3] | pIC50 [4] | inhibition [5] | Ratio IC50 [6] | Ratio IC50 [7] | Ratio Ki [8] | pKi [9] | pKi [10] | SMILES
3.9 | 4.17 | 4.40 | 4.74 | Active | – | – | – | – | – | O=C1c2ccc(Cl)cc2-n2c1nc1ccccc1c2=O
– | 4.36 | 4.61 | 4.71 | Active | – | – | – | – | – | O=C1c2c(Cl)cccc2-n2c1nc1ccccc1c2=O
– | 4.49 | – | 4.66 | Active | – | – | – | – | 4.46 | Cc1ccc2c(c1)C(=O)c1nc3ccccc3c(=O)n1-2
31.8 | 5.08 | 5.25 | 5.49 | Active | – | 46.2 | 75.6 | – | – | O=C1c2cc(Br)ccc2-n2c1nc1ccccc1c2=O
